Where a name gives a salt, the structure may show the parent alone.
Key:
[1] = test system: serotonin (5-hydroxytryptamine) uptake; conditions: hydrochloride salt; cited from earlier work
norepinephrine uptake = conditions: hydrochloride; cited from earlier work
[2] = test system: serotonin (5HT) uptake, cortical synaptosomes; assay: Synaptosomal uptake of 3H-serotonin (3H-5HT) in rat cerebral cortex synaptosomes; format: biochemical, Male Sprague-Dawley rats; conditions: for IC50: inhibition of 5HT uptake in vitro, concentration needed to inhibit 50%; for percent inhibition 5HT (numbers in parentheses): at 1000 nM, compounds which failed to achieve 50% inhibition by that concentration
Description: (§1) This general procedure is set forth by Wong et al., in Drug Development Research 6:397-403 (1985).
(§2) Male Sprague-Dawley rats (110-150 g) from Harlan Industries (Cumberland, Id.) were fed a Purina Chow ad libitum for at least 3 days before being used in the studies. Rats were killed by decapitation. Whole brains were removed and dissected. Cerebral cortex was homogenized in 9 volumes of a medium containing 0.32M sucrose and 10 mM glucose. Crude synaptosomal preparations were isolated after differential centrifugation at 1,000 g for 10 min. and 17,000 g for 28 min. The final pellets were suspended in the same medium and kept in ice until use within the same day.
(§3) Synaptosomal uptake of ^3 H-serotonin(^3 H-5-hydroxytryptamine, ^3 H-5HT) and ^14 C-l-norepinephrine (^14 C-NE) was determined as follows. Cortical synaptosomes (equivalent to 1 mg of protein) were incubated at 37° C. for 5 min in 1 ml of Krebs-bicarbonate medium containing also 10 mM glucose, 0.1 mM iproniazid, 1 mM ascorbic acid, 0.17 mM EDTA, […] and 100 nM^14 C-NE. The reaction mixture was immediately diluted with 2 ml of ice-chilled Krebs-bicarbonate buffer and filtered under vacuum with a cell harvester (Brandel, Gaithersburg, Md.). Filters were rinsed twice with approximately 5 ml of ice-chilled 0.9% saline and were transferred to a counting vial containing 10 ml of scintillation fluid (PCS, Amersham, Arlington Heights, Ill.). Radioactivity was measured by a liquid scintillation spectrophotometer. Accumulation of ^3 H-5HT and ^14 C-NE at 4° C. represented the background and was subtracted from all samples.

[3] = test system: norepinephrine (NE) uptake, cortical synaptosomes; assay: Synaptosomal uptake of 14C-l-norepinephrine (14C-NE) in rat cerebral cortex synaptosomes; format: biochemical, Male Sprague-Dawley rats; conditions: for IC50: inhibition of norepinephrine uptake in vitro, concentration needed to inhibit 50%; for percent inhibition NE (numbers in parentheses): at 1000 nM, compounds which failed to achieve 50% inhibition by that concentration
Description: as §1, §2, §3

Row | SMILES | IC50 [2] [nM] | IC50 [3] [nM] | percent inhibition NE (numbers in parentheses) [3] [%] | other results
1 | CNCCC(Oc1ccc(C(F)(F)F)cc1)c1ccccc1 (racemic) [fluoxetine, dl-N-methyl-γ-[4-(trifluoromethyl)phenoxy]benzenepropanamine] |  |  |  | selective serotonin uptake inhibition (in words) [1]: selective serotonin (5-hydroxytryptamine) uptake inhibitor
2 | CNCCC(Oc1ccccc1C)c1ccccc1.Cl (single isomer, unassigned; (-)) [tomoxetine hydrochloride, (-)-N-methyl-γ-(2-methylphenoxy)benzenepropanamine hydrochloride] |  |  |  | selective norepinephrine uptake inhibition (in words) (norepinephrine uptake): selective inhibitor of norepinephrine uptake
3 | CNCCC(Sc1ccccc1OC)c1ccccc1 (stereo not shown) [Example 1, N-Methyl-3-[(2-methoxyphenyl)thio]benzenepropanamine hydrochloride] | 270 | 42 |  | 
4 | CNCCC(Sc1ccccc1C)c1ccccc1 (stereo not shown) [Example 2, hydrochloride] | 165 | 80 |  | 
5 | CNCCC(Sc1ccc(C(F)(F)F)cc1)c1ccccc1 (stereo not shown) [Example 3, N-Methyl-3-[[4-(trifluoromethyl)phenyl]thio]benzenepropanamine hydrochloride] | 110 |  | 11 | 
6 | CNCCC(c1ccccc1)[S+]([O-])c1ccc(C(F)(F)F)cc1 (stereo not shown) [Example 4, hydrochloride] |  |  | 6 | percent inhibition 5HT (numbers in parentheses) [2]: 23%
7 | CNCCC(c1ccccc1)S(=O)(=O)c1ccc(C(F)(F)F)cc1 (stereo not shown) [Example 5, N-Methyl-3-[[4-(trifluoromethyl)phenyl]sulfonyl]benzenepropanamine hydrochloride] |  |  | 1 | percent inhibition 5HT (numbers in parentheses) [2]: 5%
8 | CNCCC(Sc1cccs1)c1ccccc1 (stereo not shown) [Example 6, N-Methyl-3-(2-thienylthio)benzenepropanamine hydrochloride] | 1000 | 48 |  | 
9 | CNCCC(Sc1ccc(C)s1)c1ccccc1 (stereo not shown) [Example 7, N-Methyl-3-[(5-methyl-2-thienyl)thio]benzenepropanamine hydrochloride] | 1000 | 300 |  | 
